From patent US10596296B2, “Heparan sulphates” (Agency for Science, Technology and Research, priority 2014, dated 2020)

How the values were obtained:
[1] = system: chondrogenic differentiation of hMSCs; test: Alcian blue staining of chondrogenic micromass pellets; type: cell-based, human; settings: 21 days; 1 ng/mL TGF-β1 with 10 μg/mL GAG
Procedure: In order to assess the effects of HS16+ve on the chondrogenic differentiation of hMSCs in vitro, it was first necessary to establish the effects of TGF-β1 alone. Chondrogenic differentiation was carried out using a modified micromass culture system. [Zhang, L., et al., Chondrogenic differentiation of human mesenchymal stem cells: a comparison between micromass and pellet culture systems. Biotechnol Lett, 2010. 32(9): p. 1339-1346.]. Briefly, passage 4 hMSCs were harvested and resuspended in chemically defined chondrogenic media (PT-3003, Lonza, MD, USA) at 2×10^7 cells/mL. Droplets of 12.5 μL were then seeded into the middle of each well in a 24-well plate and left to adhere at 37° C. for 2 h, after which, 500 μL of chondrogenic media supplemented with either 1 or 10 ng/mL of TGF-β1 (100-210, PeproTech) alone or with either 5 or 10 μg/mL of heparin (Sigma-Aldrich), porcine mucosal HS (HSPM) (Celsus laboratories), HS16+ve or HS16-ve was added to each well. The cell droplets coalesced into spherical masses after 24 h. Media was changed every 3 days and the micromasses harvested on days 3, 7, 14 and 21.

TGF-β1 = biological target: T1, TGF-β1 (Homo sapiens, UniProt P01137); test: Differential scanning fluorimetry (DSF) of TGF-β1; type: binding; settings: TGF-β1 2.5 μM, DTT 10 mM, heparin 25 μM
T1 construct: full length mature TGF-β1 is 112 amino acids in length
T1 sequence (P01137 279-390 limits assumed): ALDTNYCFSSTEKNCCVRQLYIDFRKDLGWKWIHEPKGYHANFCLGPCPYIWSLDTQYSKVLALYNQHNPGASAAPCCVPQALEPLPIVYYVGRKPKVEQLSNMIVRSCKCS
Procedure: DSF was performed on a 7500 Fast Real PCR System (software version 1.4, Applied Biosystems), as described previously (34,35). TGF-β1 (2.5 μM) was tested with or without heparin (25 μM). To facilitate the melting of TGF-β1, 10 mM of dithiothreitol (DTT) was added to the reaction mix. Experiments were run as previously described (34). First derivatives of the melting curves were calculated using Origin 7 (OriginLab Corp.) to determine the melting temperature of TGF-β1 under the various conditions.

[2] = system: TGF-β1 signaling (pSMAD2, pSMAD3) in hMSCs; test: Western blotting of pSMAD2/pSMAD3 in hMSCs treated with TGF-β1 and GAG; type: cell-based, human
Procedure: Primary hMSCs (Lonza) were isolated from the bone marrow mononuclear cells of a young healthy adult human donor by plastic adherence and characterized as previously described (30,31). The adherent cells were maintained in a basal media consisting of DMEM-low glucose (1000 mg/l, DMEM-LG) supplemented with 10% fetal calf serum, 100 U/ml penicillin, 100 μg/ml streptomycin and 2 mM L-glutamine, and cultured under standard conditions at 37° C. and 5% CO2 in a humidified atmosphere. Media replacement was every three days. Cells were detached with 0.125% trypsin/Versene (pH 7.0) upon reaching 75-80% confluence, and re-plated at a density of 3,000 cells/cm^2 under the same culture conditions. All experiments were carried out with cells at passage 5.
Human MSCs were cultured in 6-well plates in basal media for 24 h at a density of 10,000 cells/cm^2. TGF-β1 treatments were then prepared at either 1 ng/ml or 5 ng/ml alone or in the presence of either 10 μg/ml or 40 μg/ml of full length heparin, or 1 ng/ml of TGF-β1 with 10 μg/ml size-fractionated or selectively desulfated heparin, HS^PM, HS16+ or HS16−, and incubated at room temperature for 10 min before being added to the cells. Latent TGF-β1 (LTGF-β1) treatments were similarly prepared at 3.3 ng/ml alone or with 10 μg/ml of the various GAGs described above. For inhibitor studies, the cells were pre-treated for 30 min with 10 μM SB431542 (Sigma-Aldrich) or DMSO before treatment with TGF-β1. […] Samples were then immunoblotted with antibodies against SMAD2/3 (#3102, Cell Signaling), phosphorylated SMAD2 (pSMAD2, #3108, Cell Signaling), phosphorylated SMAD3 (pSMAD3, #9520, Cell Signaling) and actin (MAB1501R, Millipore). Densitometry was carried out using Quantity One software (version 4.6.6, Bio-Rad).

[3] = 6 h post-treatment, heparin and TGF-β1

heparin
GAG deposition by Alcian blue staining relative to 1 ng/mL TGF-β1 alone [1]: slight increase in GAG deposition
melting temperature of TGF-β1 upon addition of heparin (TGF-β1): 47.5 °C
pSMAD2 and pSMAD3 levels ([2]; 1 h post treatment, with TGF-β1): saturated
pSMAD2 level relative to equivalent dose of TGF-β1 without heparin [2, 3]: ~1.6 fold
pSMAD3 level relative to equivalent dose of TGF-β1 without heparin [2, 3]: ~1.35 fold
pSMAD levels relative to TGF-β1 alone ([2]; 24 h, heparin and TGF-β1): continued to be greater
pSMAD2 and pSMAD3 signal ([2]; TGF-β1 1 ng/mL with 40 μg/mL heparin, 6 h): unable to elicit the same effect
pSMAD2 and pSMAD3 levels ([2]; TGF-β1 1 ng/ml pre-incubated with 10 μg/ml GAG, 6 h): maintained a stronger pSMAD2 and pSMAD3 signal
pSMAD signal ([2]; TGF-β1 5 ng/mL with 10 or 40 μg/mL heparin, 6 h): neither dose of heparin was able enhance the pSMAD signal beyond that obtained from the growth factor alone
levels of pSMAD2 and pSMAD3 ([2]; heparin alone, no TGF-β1): No discernible levels
